Measurements: the supplement of paper PMC10307832

Assays:
Test in all cases: relative viability (nuclei count vs DMSO), 5 days (fraction); higher = more cells survive
Shikonin + Tozasertib = compound: CC(C)=CC[C@@H](O)C1=CC(=O)c2c(O)ccc(O)c2C1=O [Shikonin] + Cc1cc(Nc2cc(N3CCN(C)CC3)nc(Sc3ccc(NC(=O)C4CC4)cc3)n2)n[nH]1 [Tozasertib] (partner 0.1 µM)
Summary of the method: (§1)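 Lung cancer cell lines in 1536-well plates got either a single drug or a fixed anchor-drug dose together with five library-drug doses (not always all listed) in √10 steps, by pin tool, on the day after seeding. Nuclei were counted after 5 days, and relative viability is the treated-to-vehicle ratio of nuclei counts. Values are medians of duplicate plates.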

Shikonin + Phenformin = compound: CC(C)=CC[C@@H](O)C1=CC(=O)c2c(O)ccc(O)c2C1=O [Shikonin] + N=C(N)NC(=N)NCCc1ccccc1 [Phenformin] (partner 250 µM)
Summary of the method: as §1

[1] = compound: CC(C)N(CCCNC(=O)Nc1ccc(C(C)(C)C)cc1)C[C@H]1O[C@@H](n2ccc3c(N)ncnc32)[C@H](O)[C@@H]1O + CC(C)C[C@H](NC(=O)[C@H](Cc1ccccc1)NC(=O)c1cnccn1)B(O)O [Bortezomib] (partner 0.002 µM)
Summary of the method: as §1

[2] = compound: CC(C)N(CCCNC(=O)Nc1ccc(C(C)(C)C)cc1)C[C@H]1O[C@@H](n2ccc3c(N)ncnc32)[C@H](O)[C@@H]1O + CS(=O)(=O)CCNCc1ccc(-c2ccc3ncnc(Nc4ccc(OCc5cccc(F)c5)c(Cl)c4)c3c2)o1 [Lapatinib] (partner 2 µM)
Summary of the method: as §1

Cell Line | relative viability (Shikonin + Tozasertib; first compound 0.01 µM) | relative viability (Shikonin + Tozasertib; first compound 0.1 µM) | relative viability (Shikonin + Tozasertib; first compound 0.3162 µM) | relative viability (Shikonin + Tozasertib; first compound 1 µM) | relative viability (Shikonin + Phenformin; first compound 0.01 µM) | relative viability (Shikonin + Phenformin; first compound 0.1 µM) | relative viability (Shikonin + Phenformin; first compound 0.3162 µM) | relative viability (Shikonin + Phenformin; first compound 1 µM) | relative viability ([1]; first compound 0.08 µM) | relative viability ([1]; first compound 0.253 µM) | relative viability ([1]; first compound 0.8 µM) | relative viability ([1]; first compound 2.53 µM) | relative viability ([1]; first compound 8 µM) | relative viability ([2]; first compound 0.08 µM) | relative viability ([2]; first compound 0.253 µM) | relative viability ([2]; first compound 0.8 µM) | relative viability ([2]; first compound 2.53 µM) | relative viability ([2]; first compound 8 µM)
NCI-H3122 | 0.359 | 0.431 | 0.462 | 0.51 | 0.391 | 0.417 | 0.391 | 0.399 | 1.02 | 0.994 | 1.04 | 1.03 | 0.978 | 1.09 | 0.938 | 1.02 | 1.02 | 1.03
PC-3 [JPC-3] | 0.883 | 0.984 | 1.01 | 0.94 | 0.488 | 0.231 | 0.477 | 0.428 | 0.79 | 0.927 | 0.317 | 0.749 | 0.815 | 0.433 | 0.478 | 0.419 | 0.467 | 0.462
PC-14 | 0.619 | 0.638 | 0.743 | 0.652 | 0.587 | 0.619 | 0.597 | 0.637 | 0.83 | 0.852 | 0.859 | 1 | 0.743 | 0.287 | 0.284 | 0.355 | 0.332 | 0.316
RERF-LC-KJ | 0.55 | 0.44 | 0.499 | 0.388 | 0.374 | 0.433 | 0.505 | 0.36 | 0.97 | 1.15 | 1.09 | 1.04 | 0.971 | 0.894 | 0.841 | 0.861 | 0.911 | 0.829
SK-LU-1 | 0.317 | 0.338 | 0.351 | 0.3 | 0.522 | 0.648 | 0.596 | 0.524 | 1.22 | 1.02 | 1.18 | 1.31 | 1.03 | 0.892 | 0.887 | 0.989 | 1.13 | 0.748
SW 1573 | 0.194 | 0.24 | 0.188 | 0.0571 | 0.389 | 0.388 | 0.325 | 0.122 | 1.13 | 1.07 | 1.06 | 1.12 | 0.864 | 1.05 | 1.09 | 1.09 | 1.05 | 1.16
